Test results from patent EP4566594A1, “LIPID NANOPARTICLES COMPRISING LONG-CHAIN CERAMIDE AND COMPOSITION FOR CELL DEATH COMPRISING SAME” (Croda Korea Limited, priority 2022, dated 2024).

Columns and labels:
[1] = test system: MDA-MB-231 cells; assay: Cell viability, WST-8 reagent, absorbance at 450nm; format: cell-based; conditions: ceramide alone dispersed in aqueous solution in the same amount as in Examples 1 and 2, column purified
Procedure: (§1) MDA-MB-231 and MDA-MB-468 cells were cultured at 37°C under 10% fetal bovine serum (FBS) and ATCC modified RPMI medium (Gibco) supplemented with 1% penicillin/streptomycin, 5% CO2.
(§2) For experiments, lipid nanoparticles prepared at each concentration of C18-ceramide were respectively treated (the number of particles: 4.5 x 10^8 ± 2.05 x 10^8) to MDA-MB-231 and MDA-MB-468 cells which were inoculated into a 96-well plate (1.5 x 10^3 cells/well). After 24 hours of incubation, WST-8 reagent (Dojindo) was added to the medium at 37°C for 1 hour. Absorbance was measured at 450nm using a microplate reader (BioTek). Thereafter, cell viability was confirmed by measuring absorbance every 24 hours.

[2] = test system: MDA-MB-468 cells; assay: Cell viability, WST-8 reagent, absorbance at 450nm; format: cell-based; conditions: ceramide alone dispersed in aqueous solution in the same amount as in Examples 1 and 2, column purified
Procedure: as §1, §2
In addition, the cell viability of MDA-MB-468 cells was reduced to 53% when lipid nanoparticles of 5 mM C18-ceramide were treated (FIG. 9b).

[3] = test system: apoptosis-related proteins (BAX, BAD, BCL2, and cleaved caspase3); assay: Western blotting of apoptosis-related proteins in MDA-MB-468 cells; format: cell-based; conditions: ceramide alone dispersed in aqueous solution in the same amount as in Examples 1 and 2, column purified
Procedure: MDA-MB-468 cells were cultured in ATCC modified RPMI medium (Gibco) supplemented with 10% fetal bovine serum (FBS) and 1% penicillin/streptomycin at 37°C under 5% CO2.
For experiments, MDA-MB-468 cells were seeded onto 60 mm^2 cell culture plates (1.3 x 10^6 cells/plate). After 24 hours, LNP prepared at different concentrations of C18-ceramide was calculated and added to 2.5 mL opti-MEM medium per well such that 2.48 x 10^11±2.75 x 10^10 particles were included in the medium. The medium containing LNP was treated and incubated at 37°C for 24 hours.
Thereafter, the cells were collected, and western blotting was performed. For this purpose, MDA-MB-468 cells treated with LNP were lysed in RIPA buffer containing a protease inhibitor and a phosphatase inhibitor (Sigma). Total cell lysates were quantified using the BCA protein assay kit (Thermo Scientific). Next, the cell lysate (50 µg) was loaded on a 4-15% gradient SDS-PAGE gel (Biorad) under denaturing conditions and transferred to a PVDF membrane (iBlot2 Dry Blotting System, Thermo Scientific). […]
The secondary antibody conjugated with HRP was reacted at room temperature for 2 hours, and then the membrane was treated with Western ECL, and the luminescence image was analyzed using LAS500 (GE Healthcare), and the results are shown in FIG. 10.

[4] = Solubility of C18-ceramide itself in aqueous solution; format: physicochemical; conditions: without lipid nanoparticles

solubility in an aqueous solution [4]: insoluble
SMILES: CCCCCCCC/C=C\CCCCCCCC(=O)N[C@@H](CO)[C@H](O)[C@H](O)CCCCCCCCCCCCCC (stereo in doubt) [C18-ceramide, N-Oleoyl-phytosphingosine]
cell survival rate [1]: no change
cell survival rate [2]: no change
antitumor-related protein expression [3]: no change
